In ChEMBL document CHEMBL1201862, “PubChem BioAssay data set” (2004):
Activity calls are given as the source filed them.

Experiments:
[1] = molecular target: T1, Short transient receptor potential channel 4 (Mus musculus, UniProt Q9QUQ5); test: mouse TRPC4 channel activators, dose response, cell-based, HEK293 TRPC4/mu-opioid, Fluo-4 calcium (AID 434937); assay type: functional
T1 sequence (Q9QUQ5 whole entry): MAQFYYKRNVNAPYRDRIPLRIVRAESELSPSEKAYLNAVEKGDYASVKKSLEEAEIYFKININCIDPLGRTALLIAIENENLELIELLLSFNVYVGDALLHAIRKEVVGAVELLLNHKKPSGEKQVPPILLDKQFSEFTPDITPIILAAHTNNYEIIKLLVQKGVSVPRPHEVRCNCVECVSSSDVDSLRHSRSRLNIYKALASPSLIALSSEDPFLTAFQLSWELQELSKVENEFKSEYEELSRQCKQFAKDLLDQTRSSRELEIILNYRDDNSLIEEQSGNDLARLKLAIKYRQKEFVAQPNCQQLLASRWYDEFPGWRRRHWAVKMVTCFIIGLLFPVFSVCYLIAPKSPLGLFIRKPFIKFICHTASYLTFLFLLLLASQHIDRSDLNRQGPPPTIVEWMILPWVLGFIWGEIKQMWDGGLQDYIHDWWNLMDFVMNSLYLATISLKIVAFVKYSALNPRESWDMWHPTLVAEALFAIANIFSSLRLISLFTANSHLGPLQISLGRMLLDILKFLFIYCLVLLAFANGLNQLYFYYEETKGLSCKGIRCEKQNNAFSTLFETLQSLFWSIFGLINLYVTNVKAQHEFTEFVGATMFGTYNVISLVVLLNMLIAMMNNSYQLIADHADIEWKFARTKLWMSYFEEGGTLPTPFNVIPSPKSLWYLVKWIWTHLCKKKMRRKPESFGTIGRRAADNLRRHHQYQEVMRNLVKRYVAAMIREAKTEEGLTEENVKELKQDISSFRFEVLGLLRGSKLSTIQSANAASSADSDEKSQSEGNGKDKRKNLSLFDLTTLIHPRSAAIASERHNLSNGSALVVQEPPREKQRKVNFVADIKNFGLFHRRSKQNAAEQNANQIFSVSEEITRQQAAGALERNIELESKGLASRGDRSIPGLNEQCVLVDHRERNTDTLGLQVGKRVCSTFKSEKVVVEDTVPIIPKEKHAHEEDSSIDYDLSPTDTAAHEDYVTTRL

[2] = molecular target: T2, Trace amine-associated receptor 1 (Homo sapiens, UniProt Q96RJ0); test: Counterscreen for agonists of the human trace amine associated receptor 1 (hTAAR1): Fluorescence-based cell-based high throughput dose response assay to identify hTAAR1 agonist that also desensitize TAAR1 receptor response.; assay type: functional
T2 sequence (Q96RJ0 whole entry): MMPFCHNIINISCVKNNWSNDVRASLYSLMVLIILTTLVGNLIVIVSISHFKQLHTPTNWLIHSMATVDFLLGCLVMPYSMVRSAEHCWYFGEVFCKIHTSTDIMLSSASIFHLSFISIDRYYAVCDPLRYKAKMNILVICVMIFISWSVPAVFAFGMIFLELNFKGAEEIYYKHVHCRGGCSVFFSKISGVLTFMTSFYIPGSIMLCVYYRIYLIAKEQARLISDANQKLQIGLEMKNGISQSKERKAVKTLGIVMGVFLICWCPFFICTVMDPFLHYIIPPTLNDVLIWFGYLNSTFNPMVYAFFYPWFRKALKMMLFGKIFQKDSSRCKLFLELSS

[3] = molecular target: T2, Trace amine-associated receptor 1; test: Fluorescence-based cell-based high throughput dose response assay to identify agonists of the human trace amine associated receptor 1 (TAAR1).; assay type: functional
[4] = molecular target: T1, Short transient receptor potential channel 4; test: mouse TRPC4 channel inhibitors, dose response, cell-based, HEK293 TRPC4/mu-opioid, Fluo-4 calcium (AID 434942); assay type: functional;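 also: potency of inhibitors blocking the TRPC4 calcium response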
[5] = cells; assay type: functional, cell-based
[6] = cells; assay type: functional, cell-based; remark: listed apart in the source
[7] = molecular target: SWI/SNF-related matrix-associated actin-dependent regulator of chromatin subfamily A member 2 (Homo sapiens, UniProt P51531); test: Luminescence-based cell-based high throughput dose response assay to identify activators of the function of SWI/SNF related, matrix associated, actin dependent regulator of chromatin, subfamily a, member 2 (SMARCA2, BRM).; assay type: functional
Sequence of SWI/SNF-related matrix-associated actin-dependent regulator of chromatin subfamily A member 2 (P51531 whole entry): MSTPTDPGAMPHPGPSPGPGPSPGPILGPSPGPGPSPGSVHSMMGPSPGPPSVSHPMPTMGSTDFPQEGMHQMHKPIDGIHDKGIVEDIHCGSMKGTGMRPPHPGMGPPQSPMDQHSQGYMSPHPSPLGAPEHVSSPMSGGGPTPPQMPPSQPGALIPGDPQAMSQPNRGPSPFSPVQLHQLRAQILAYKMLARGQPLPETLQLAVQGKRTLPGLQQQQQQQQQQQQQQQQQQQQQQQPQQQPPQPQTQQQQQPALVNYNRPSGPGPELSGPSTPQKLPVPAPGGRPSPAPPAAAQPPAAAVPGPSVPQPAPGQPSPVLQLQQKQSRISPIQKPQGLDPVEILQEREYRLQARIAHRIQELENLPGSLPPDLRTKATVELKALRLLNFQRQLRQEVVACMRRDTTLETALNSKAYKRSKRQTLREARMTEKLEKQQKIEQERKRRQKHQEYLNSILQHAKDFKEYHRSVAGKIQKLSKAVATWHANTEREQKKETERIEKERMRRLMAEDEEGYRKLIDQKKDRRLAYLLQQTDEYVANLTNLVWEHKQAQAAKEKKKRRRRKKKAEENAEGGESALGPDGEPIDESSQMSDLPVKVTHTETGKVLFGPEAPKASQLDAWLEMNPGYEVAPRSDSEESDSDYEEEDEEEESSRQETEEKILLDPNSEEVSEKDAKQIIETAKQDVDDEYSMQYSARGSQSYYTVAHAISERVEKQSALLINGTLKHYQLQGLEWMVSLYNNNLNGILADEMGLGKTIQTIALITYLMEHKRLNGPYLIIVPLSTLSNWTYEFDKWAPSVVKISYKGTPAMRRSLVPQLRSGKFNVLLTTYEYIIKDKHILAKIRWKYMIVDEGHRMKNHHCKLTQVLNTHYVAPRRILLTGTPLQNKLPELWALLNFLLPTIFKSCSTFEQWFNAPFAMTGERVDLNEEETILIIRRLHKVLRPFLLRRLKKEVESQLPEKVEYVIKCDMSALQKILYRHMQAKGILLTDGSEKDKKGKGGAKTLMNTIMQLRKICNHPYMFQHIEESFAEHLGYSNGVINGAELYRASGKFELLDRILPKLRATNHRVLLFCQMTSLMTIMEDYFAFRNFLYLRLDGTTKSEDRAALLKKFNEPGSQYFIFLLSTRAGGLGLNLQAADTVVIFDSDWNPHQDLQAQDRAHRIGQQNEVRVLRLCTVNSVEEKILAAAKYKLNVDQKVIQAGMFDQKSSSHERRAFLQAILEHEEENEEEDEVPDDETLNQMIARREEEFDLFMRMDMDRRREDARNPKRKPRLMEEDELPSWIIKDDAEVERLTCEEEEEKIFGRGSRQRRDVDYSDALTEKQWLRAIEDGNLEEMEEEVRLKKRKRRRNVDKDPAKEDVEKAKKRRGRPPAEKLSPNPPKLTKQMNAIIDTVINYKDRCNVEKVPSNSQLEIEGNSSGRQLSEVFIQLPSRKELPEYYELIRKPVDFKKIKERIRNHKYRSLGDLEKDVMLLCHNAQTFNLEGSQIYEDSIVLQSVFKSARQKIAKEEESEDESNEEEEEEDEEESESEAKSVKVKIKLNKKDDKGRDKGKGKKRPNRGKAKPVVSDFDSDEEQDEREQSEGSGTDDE

[8] = growth suppression of beta-catenin-knockout colon cells, dose response, cell-based, HCT116, human colon tumor (AID 1045); assay type: functional;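 also: HCT116 colon tumor cells with beta catenin knocked out; cells exposed to compound for 60 hours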
[9] = Counterscreen for activators of the function of SWI/SNF related, matrix associated, actin dependent regulator of chromatin, subfamily a, member 2 (SMARCA2, BRM): Luminescence-based cell-based high throughput dose response assay to identify non-selective compounds using the VP16 reporter assay.; assay type: functional
[10] = molecular target: Photoreceptor-specific nuclear receptor (Homo sapiens, UniProt Q9Y5X4); assay type: functional, cell-based;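 also: CHO-S cells with Gal4-NCOR and VP16-NR2E3 two-hybrid luciferase reporter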
Sequence of Photoreceptor-specific nuclear receptor (Q9Y5X4 whole entry, the tested form may be a part): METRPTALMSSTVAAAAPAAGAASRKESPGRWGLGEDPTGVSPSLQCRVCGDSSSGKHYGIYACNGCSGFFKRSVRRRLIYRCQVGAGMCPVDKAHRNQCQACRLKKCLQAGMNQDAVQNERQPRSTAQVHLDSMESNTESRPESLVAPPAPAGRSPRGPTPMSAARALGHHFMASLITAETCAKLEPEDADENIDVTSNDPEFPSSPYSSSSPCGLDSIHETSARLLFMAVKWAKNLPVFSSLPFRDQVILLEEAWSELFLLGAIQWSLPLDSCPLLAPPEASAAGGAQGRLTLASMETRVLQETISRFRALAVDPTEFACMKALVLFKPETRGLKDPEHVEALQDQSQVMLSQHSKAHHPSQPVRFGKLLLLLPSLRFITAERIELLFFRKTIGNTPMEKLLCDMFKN

[11] = molecular target: T3, Heat shock factor protein 1 (Mus musculus, UniProt P38532); test: HSF1 potentiators in luciferase reporter cells, confirmation, cell-based, NIH3T3, luminescence, dose retest (AID 435004); assay type: functional;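 also: stress induced by proteasome inhibitor MG132 added 30 min after compound; luciferase reporter driven by HSF1 response element in NIH3T3 cells; actives raise luminescence as potentiators of the MG132 stress response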
T3 sequence (P38532 whole entry): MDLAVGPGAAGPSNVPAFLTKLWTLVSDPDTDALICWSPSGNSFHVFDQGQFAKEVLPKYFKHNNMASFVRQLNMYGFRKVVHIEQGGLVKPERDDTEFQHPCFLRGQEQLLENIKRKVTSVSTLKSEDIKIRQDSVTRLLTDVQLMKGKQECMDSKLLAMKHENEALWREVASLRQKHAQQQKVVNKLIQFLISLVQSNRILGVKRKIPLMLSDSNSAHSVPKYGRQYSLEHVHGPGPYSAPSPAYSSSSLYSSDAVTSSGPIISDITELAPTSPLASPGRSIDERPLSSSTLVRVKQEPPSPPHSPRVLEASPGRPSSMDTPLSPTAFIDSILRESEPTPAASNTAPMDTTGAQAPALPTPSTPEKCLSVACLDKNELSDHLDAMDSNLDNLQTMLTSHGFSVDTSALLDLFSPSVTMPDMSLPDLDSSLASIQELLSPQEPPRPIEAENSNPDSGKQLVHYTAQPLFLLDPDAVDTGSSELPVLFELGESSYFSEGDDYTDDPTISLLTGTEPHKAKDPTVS

[12] = HEK293T cell cytotoxicity, dose response, cytotoxicity control for HIV Vif inhibitor project, cherry-picks (AID 652208); assay type: functional, cell-based
[13] = growth suppression of PTEN-null colon cells, dose response, cell-based, HCT116 PTEN knockout (AID 1047); assay type: functional;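 also: HCT116 colon tumor cells with PTEN knocked out; cells exposed to compound for 60 hours before readout; potency for loss of cell viability measured by luminescence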
[14] = cytotoxicity in HEK-293T cells, dose response, cytotoxicity control for TCR NF-kB inhibitor project, luminescence, T-cell screen hits (AID 489026); assay type: functional, cell-based;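 also: cells exposed to compound about 14 hours before the viability readout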
[15] = molecular target: Fructose-bisphosphate aldolase (Mycobacterium tuberculosis, UniProt P9WQA3); test: Fluorescence-based biochemical high throughput dose response assay for inhibitors of the fructose-bisphosphate aldolase (FBA) of M. tuberculosis.; assay type: functional
Sequence of Fructose-bisphosphate aldolase (P9WQA3 whole entry): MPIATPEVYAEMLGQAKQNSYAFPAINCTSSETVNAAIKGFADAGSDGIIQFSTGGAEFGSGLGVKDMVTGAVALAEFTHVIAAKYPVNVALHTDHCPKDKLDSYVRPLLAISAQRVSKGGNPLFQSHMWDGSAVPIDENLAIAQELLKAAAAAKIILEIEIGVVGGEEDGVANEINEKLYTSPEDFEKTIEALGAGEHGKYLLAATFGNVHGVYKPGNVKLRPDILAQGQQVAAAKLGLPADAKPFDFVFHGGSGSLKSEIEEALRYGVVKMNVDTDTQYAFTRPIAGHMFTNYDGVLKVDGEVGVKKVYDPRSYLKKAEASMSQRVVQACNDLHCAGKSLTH

[16] = test system: Vero; test: Vero cell toxicity, dose response, cytotoxicity control, plate reader, cherry-pick samples (AID 687020); assay type: functional, cell-based; settings: Chlorocebus sabaeus
[17] = molecular target: T4, DNA repair and recombination protein RAD54-like (Homo sapiens, UniProt Q92698); test: inhibitors of human RAD54 branch migration, confirmation, biochemical, fluorescence, cherry-picked samples, dose series (AID 651657); assay type: functional
T4 sequence (Q92698 whole entry): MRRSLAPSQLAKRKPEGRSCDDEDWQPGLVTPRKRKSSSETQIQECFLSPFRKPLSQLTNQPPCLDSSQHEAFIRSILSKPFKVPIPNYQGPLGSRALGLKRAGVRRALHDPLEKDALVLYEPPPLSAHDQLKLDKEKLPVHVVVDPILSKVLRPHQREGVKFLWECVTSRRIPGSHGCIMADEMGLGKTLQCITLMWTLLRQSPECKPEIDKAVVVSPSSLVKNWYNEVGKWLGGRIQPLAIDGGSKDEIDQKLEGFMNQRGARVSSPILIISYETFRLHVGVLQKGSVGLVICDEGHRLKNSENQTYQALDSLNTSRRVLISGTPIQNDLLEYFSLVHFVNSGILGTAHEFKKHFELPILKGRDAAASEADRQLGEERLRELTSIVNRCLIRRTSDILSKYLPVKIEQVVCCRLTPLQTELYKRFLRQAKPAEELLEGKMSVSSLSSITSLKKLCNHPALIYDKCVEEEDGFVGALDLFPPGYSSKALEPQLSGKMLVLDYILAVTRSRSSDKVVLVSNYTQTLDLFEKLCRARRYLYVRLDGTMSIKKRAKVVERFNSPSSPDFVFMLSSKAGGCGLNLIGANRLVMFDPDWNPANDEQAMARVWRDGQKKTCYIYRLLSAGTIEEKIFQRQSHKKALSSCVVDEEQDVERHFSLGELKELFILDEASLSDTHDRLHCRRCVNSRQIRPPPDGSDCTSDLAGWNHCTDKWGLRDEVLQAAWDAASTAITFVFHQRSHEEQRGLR

OC(CNC1CCCc2ccccc21)COc1c(Cl)cccc1Cl (configuration not stated)
EC50 [1]: 5.96 µM (active) | IC50 [2]: 8.84 µM (active) | EC50 [3]: 1.57 µM (active) | EC50 [4]: 1.33 µM (active) | IC50 [5]: 13.9 µM (inactive) | EC50 [6]: 11.7 µM (inactive)

Cc1cc(NC(=O)CSc2nc3c(sc4ccccc43)c(=O)n2CCCN2CCOCC2)[nH]n1
EC50 [7]: > 91.2 µM (inactive) | EC50 [8]: 285 µM (active) | EC50 [9]: > 91.2 µM (inactive) | IC50 [10]: 0.783 µM (active) | EC50 [11]: 37.9 µM (active) | AC50 [12]: > 52 µM (inactive) | EC50 [13]: 100 µM (active) | IC50 [14]: > 80 µM (inactive)

COc1cccc(/C=C/c2nc(S(=O)(=O)c3ccccc3)c(N3CCC(C(N)=O)CC3)o2)c1
IC50 [15]: 0.676 µM (active)

Cc1ccc(-c2nc(N3CCN(C)CC3)c3ccccc3n2)cc1
AC50 [16]: 26.8 µM (active) | AC50 [17]: 41.3 µM (active)
